Measurements: patent publication US20240051976A1, “A Tracer Compound and a Preparation Method Thereof” (Turun Yliopisto, priority 2020, published 2024)

What was measured:
B16/F10 melanoma cells = assay: Nonspecific B16/F10 melanoma cell-uptake (free, membrane-bound, internalized fractions); assay type: cell-based, mouse; settings: for radioactivity in the free fraction outside the cells: n=3
Description: Rat pancreatic tumor cell line AR42J that expresses SSTR was obtained from American Type Culture Collection (Manassas, VA). C4-2 cells (ATCC® CRL-3314™) were cultured in DMEM medium (Gibco) supplemented with 18% F12 medium (Sigma), 10% FBS (Gibco) and 1% T-medium. Both cell lines were grown in at 37° C. in a humidified incubator containing 5% C02. Cells grown to 80%-90% confluence were used for either in vitro or in vivo experiments. Mouse skin melanoma B16/F10 cells were cultured in CO2 Independent Medium (Life Technologies Gibco, cat. #18045054) supplemented with GlutaMax (1× final concentration, 10% FBS and Pen-Strep at 37° C. in a humidified incubator. The B16/F10 cell viability was 97%. The C4-2 cells (ATCC® CRL-3314™) were cultured in DMEM medium (Gibco) supplemented with 18% F12 medium (Sigma), 10% FBS (Gibco) and 1% T-medium. Both cell lines were grown in at 37° C. in a humidified incubator containing 5% C02. Cells grown to 80%-90% confluence were used for either in vitro or in vivo experiments.
500 000 cells/well were seeded overnight on 6-well plates. The growth media was removed and the reaction media containing the radiotracer [^18F]4 was added. […] The membrane-bound fraction was collected by adding cold glycine buffer (1 mL) on the cells, incubating for 5 minutes on an ice bath, removing the supernatant, repeating the procedure, and washing the cells with cold 1×PBS, and collecting all the supernatants to the same microtube. For determining the internalized fraction, 1 M NaOH was added on the cells and left to incubate in ambient temperature for 10 minutes. The supernatant was removed and the cells were washed twice with cold 1×PBS, and the supernatants were collected into the same microtube. The supernatants collected separately in each phase, were measure with a gamma counter for determining the radioactivity-ratio (%) of each fraction. […] The radioactivity distribution between the aforementioned fractions is depicted in FIG. 9.

[1] = PET/CT, biodistribution and elimination in control SCID mice; assay type: in vivo, mouse; settings: intravenous
Description: [^18F]AmBF3-Tz ([^18F]4) was formulated in 10% ethanol in 0.01 M PBS and administered intravenously to SCID mice. The PET/CT image was acquired with Inveon PET/CT and Molecubes PET and CT.
[^18F]AmBF3-Tz ([^18F]4) was formulated in 10% ethanol in 0.01 M PBS and administered intravenously to SCID mice. The standardized uptake values (SUVs) presenting the elimination profile (FIGS. 13a and 13b) were determined from the PET image by drawing regions-of-interest (ROI) around selected organs (heart, liver, kidney, lung, muscle, urinary bladder) and by measuring the ratio of radioactivity per unit volume of that ROI and normalized to the injected dose.

C[N+](C)(CCNC(=O)Cc1ccc(-c2nncnn2)cc1)C[B-](F)(F)F [[^18F]4, {[(2-{2-[4-(1,2,4,5-tetrazin-3-yl)phenyl]acetamido}ethyl)dimethylammonio]methyl}trifluoroborate]
radioactivity in the free fraction outside the cells (B16/F10 melanoma cells; B16/F10 cells, 15 min): 99.3±0.09% | radioactivity in the free fraction outside the cells (B16/F10 melanoma cells; B16/F10 cells, 240 min): 99.3±0.08% | % of total radioactivity in the free fraction (B16/F10 melanoma cells; B16/F10 cells, at each time point (FIG. 9)): Over 99% | nonspecific uptake in B16/F10 cells (B16/F10 melanoma cells; throughout the study): did not demonstrate nonspecific uptake | main elimination route [1]: through kidneys | in vivo stability (bone uptake) ([1]; PET/CT and biodistribution): excellent stability
